# Data: PubChem BioAssay AID1918934 (Molecular Pharmacology Branch, DTP, NCI, 2023)
# Test system: 292921-168-R-J2-PDC complex spheroid viability
# Assay: Anticancer human tumor 292921-168-R-J2-PDC patient-derived pancreatic carcinoma cell line growth inhibition
# Settings: for IC50: curve of first compound; for viability, T/C: stronger effect = lower value
# Outline: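 Multicellular complex spheroids of tumor cells with human endothelial cells (HUVEC) and mesenchymal stem cells; the LSD1 inhibitor iadademstat was combined with standard-of-care or investigational agents. Top concentration at or near clinical Cmax, half-log dilutions; final DMSO ≤0.25%.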
# [1] = second compound 0.1 µM, first compound 0.0316 µM
# [2] = second compound 0.1 µM, first compound 0.1 µM
# [3] = second compound 0.316 µM, first compound 0.0316 µM
# [4] = second compound 0.316 µM, first compound 0.1 µM
# [5] = second compound 1 µM, first compound 0.0316 µM
# [6] = second compound 1 µM, first compound 0.1 µM
# [7] = second compound 3.16 µM, first compound 0.0316 µM
# [8] = second compound 3.16 µM, first compound 0.1 µM
# [9] = second compound 10 µM, first compound 0.0316 µM
# [10] = second compound 10 µM, first compound 0.1 µM
# 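Further: seven day compound exposure before luminescent viability read.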
# 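Wherever viability, T/C is given: 100% = DMSO vehicle control wells.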
smiles,measurement,setting,value
CC1(C)CCC(CN2CCN(c3ccc(C(=O)NS(=O)(=O)c4ccc(NCC5CCOCC5)c([N+](=O)[O-])c4)c(Oc4cnc5[nH]ccc5c4)c3)CC2)=C(c2ccc(Cl)cc2)C1 + NC1CC1c1ccc(-c2cccc(O)c2)cc1,IC50,second compound 0.1 µM,1.86 µM
same,IC50,second compound 0.316 µM,1.75 µM
same,IC50,second compound 1 µM,1.75 µM
same,IC50,second compound 3.16 µM,1.39 µM
same,IC50,second compound 10 µM,0.958 µM
same,"viability, T/C",[1],75.5%
same,"viability, T/C",[2],92.6%
same,"viability, T/C","second compound 0.1 µM, first compound 0.316 µM",81.9%
same,"viability, T/C","second compound 0.1 µM, first compound 1 µM",82.8%
same,"viability, T/C","second compound 0.1 µM, first compound 3.16 µM",22.1%
same,"viability, T/C","second compound 0.1 µM, first compound 10 µM",0.22%
same,"viability, T/C",[3],72.5%
same,"viability, T/C",[4],79.7%
same,"viability, T/C","second compound 0.316 µM, first compound 0.316 µM",74.5%
same,"viability, T/C","second compound 0.316 µM, first compound 1 µM",78.2%
same,"viability, T/C","second compound 0.316 µM, first compound 3.16 µM",22.5%
same,"viability, T/C","second compound 0.316 µM, first compound 10 µM",0.21%
same,"viability, T/C",[5],67.8%
same,"viability, T/C",[6],68.3%
same,"viability, T/C","second compound 1 µM, first compound 0.316 µM",71.7%
same,"viability, T/C","second compound 1 µM, first compound 1 µM",78%
same,"viability, T/C","second compound 1 µM, first compound 3.16 µM",27.1%
same,"viability, T/C","second compound 1 µM, first compound 10 µM",0.27%
same,"viability, T/C",[7],62.4%
same,"viability, T/C",[8],59%
same,"viability, T/C","second compound 3.16 µM, first compound 0.316 µM",58.3%
same,"viability, T/C","second compound 3.16 µM, first compound 1 µM",65.6%
same,"viability, T/C","second compound 3.16 µM, first compound 3.16 µM",21.6%
same,"viability, T/C","second compound 3.16 µM, first compound 10 µM",0.19%
same,"viability, T/C",[9],49.8%
same,"viability, T/C",[10],58.4%
same,"viability, T/C","second compound 10 µM, first compound 0.316 µM",52.4%
same,"viability, T/C","second compound 10 µM, first compound 1 µM",49.9%
same,"viability, T/C","second compound 10 µM, first compound 3.16 µM",12.1%
same,"viability, T/C","second compound 10 µM, first compound 10 µM",0.19%
Cn1ncnc1C1c2n[nH]c(=O)c3cc(F)cc(c23)NC1c1ccc(F)cc1 (stereo not given) + NC1CC1c1ccc(-c2cccc(O)c2)cc1,IC50,second compound 0.1 µM,> 0.1 µM
same,IC50,second compound 0.316 µM,> 0.1 µM
same,IC50,second compound 1 µM,> 0.1 µM
same,IC50,second compound 3.16 µM,> 0.1 µM
same,IC50,second compound 10 µM,0.00646 µM
same,"viability, T/C","second compound 0.1 µM, first compound 0.000316 µM",87.2%
same,"viability, T/C","second compound 0.1 µM, first compound 0.001 µM",83.4%
same,"viability, T/C","second compound 0.1 µM, first compound 0.00316 µM",76.7%
same,"viability, T/C","second compound 0.1 µM, first compound 0.01 µM",71.2%
same,"viability, T/C",[1],67.3%
same,"viability, T/C",[2],65.5%
same,"viability, T/C","second compound 0.316 µM, first compound 0.000316 µM",71%
same,"viability, T/C","second compound 0.316 µM, first compound 0.001 µM",75%
same,"viability, T/C","second compound 0.316 µM, first compound 0.00316 µM",67%
same,"viability, T/C","second compound 0.316 µM, first compound 0.01 µM",63.4%
same,"viability, T/C",[3],57.8%
same,"viability, T/C",[4],62.2%
same,"viability, T/C","second compound 1 µM, first compound 0.000316 µM",72.2%
same,"viability, T/C","second compound 1 µM, first compound 0.001 µM",62.8%
same,"viability, T/C","second compound 1 µM, first compound 0.00316 µM",67.3%
same,"viability, T/C","second compound 1 µM, first compound 0.01 µM",58.1%
same,"viability, T/C",[5],64%
same,"viability, T/C",[6],60.3%
same,"viability, T/C","second compound 3.16 µM, first compound 0.000316 µM",69.2%
same,"viability, T/C","second compound 3.16 µM, first compound 0.001 µM",64.2%
same,"viability, T/C","second compound 3.16 µM, first compound 0.00316 µM",59.7%
same,"viability, T/C","second compound 3.16 µM, first compound 0.01 µM",54.5%
same,"viability, T/C",[7],50.5%
same,"viability, T/C",[8],52.5%
same,"viability, T/C","second compound 10 µM, first compound 0.000316 µM",51.9%
same,"viability, T/C","second compound 10 µM, first compound 0.001 µM",58%
same,"viability, T/C","second compound 10 µM, first compound 0.00316 µM",51.9%
same,"viability, T/C","second compound 10 µM, first compound 0.01 µM",48.3%
same,"viability, T/C",[9],43.6%
same,"viability, T/C",[10],43.6%
NS(=O)(=O)OCC1CC(n2ccc3c(NC4CCc5ccccc54)ncnc32)CC1O (stereo not given) + NC1CC1c1ccc(-c2cccc(O)c2)cc1,IC50,second compound 0.1 µM,0.0174 µM
same,IC50,second compound 0.316 µM,0.0173 µM
same,IC50,second compound 1 µM,0.0174 µM
same,IC50,second compound 3.16 µM,0.0179 µM
same,IC50,second compound 10 µM,0.0164 µM
same,"viability, T/C","second compound 0.1 µM, first compound 0.00949 µM",87.4%
same,"viability, T/C","second compound 0.1 µM, first compound 0.03 µM",16.4%
same,"viability, T/C","second compound 0.1 µM, first compound 0.0949 µM",5.35%
same,"viability, T/C","second compound 0.1 µM, first compound 0.3 µM",2.15%
same,"viability, T/C","second compound 0.1 µM, first compound 0.949 µM",2.62%
same,"viability, T/C","second compound 0.1 µM, first compound 3 µM",1.96%
same,"viability, T/C","second compound 0.316 µM, first compound 0.00949 µM",86.8%
same,"viability, T/C","second compound 0.316 µM, first compound 0.03 µM",16%
same,"viability, T/C","second compound 0.316 µM, first compound 0.0949 µM",5.14%
same,"viability, T/C","second compound 0.316 µM, first compound 0.3 µM",2.21%
same,"viability, T/C","second compound 0.316 µM, first compound 0.949 µM",1.99%
same,"viability, T/C","second compound 0.316 µM, first compound 3 µM",2.75%
same,"viability, T/C","second compound 1 µM, first compound 0.00949 µM",89.1%
same,"viability, T/C","second compound 1 µM, first compound 0.03 µM",14.7%
same,"viability, T/C","second compound 1 µM, first compound 0.0949 µM",4.08%
same,"viability, T/C","second compound 1 µM, first compound 0.3 µM",2.39%
same,"viability, T/C","second compound 1 µM, first compound 0.949 µM",2.73%
same,"viability, T/C","second compound 1 µM, first compound 3 µM",2.93%
same,"viability, T/C","second compound 3.16 µM, first compound 0.00949 µM",91%
same,"viability, T/C","second compound 3.16 µM, first compound 0.03 µM",16.4%
same,"viability, T/C","second compound 3.16 µM, first compound 0.0949 µM",5.76%
same,"viability, T/C","second compound 3.16 µM, first compound 0.3 µM",2.49%
same,"viability, T/C","second compound 3.16 µM, first compound 0.949 µM",3.17%
same,"viability, T/C","second compound 3.16 µM, first compound 3 µM",2.38%
same,"viability, T/C","second compound 10 µM, first compound 0.00949 µM",76.1%
same,"viability, T/C","second compound 10 µM, first compound 0.03 µM",21.5%
same,"viability, T/C","second compound 10 µM, first compound 0.0949 µM",5.5%
same,"viability, T/C","second compound 10 µM, first compound 0.3 µM",2.88%
same,"viability, T/C","second compound 10 µM, first compound 0.949 µM",2.28%
same,"viability, T/C","second compound 10 µM, first compound 3 µM",2.43%
